The record followed here is ChEMBL document CHEMBL4229568, “Discovery of natural flavonoids as activators of Nrf2-mediated defense system: Structure-activity relationship and inhibition of intracellular oxidative insults” (Bioorg Med Chem, 2018).

Calls of active or inactive are those of the source. The rule behind the calls is not given here.

In the first experiment the target is T1, Nuclear factor erythroid 2-related factor 2 (Mus musculus) (UniProt Q60795).
T1 sequence (whole entry): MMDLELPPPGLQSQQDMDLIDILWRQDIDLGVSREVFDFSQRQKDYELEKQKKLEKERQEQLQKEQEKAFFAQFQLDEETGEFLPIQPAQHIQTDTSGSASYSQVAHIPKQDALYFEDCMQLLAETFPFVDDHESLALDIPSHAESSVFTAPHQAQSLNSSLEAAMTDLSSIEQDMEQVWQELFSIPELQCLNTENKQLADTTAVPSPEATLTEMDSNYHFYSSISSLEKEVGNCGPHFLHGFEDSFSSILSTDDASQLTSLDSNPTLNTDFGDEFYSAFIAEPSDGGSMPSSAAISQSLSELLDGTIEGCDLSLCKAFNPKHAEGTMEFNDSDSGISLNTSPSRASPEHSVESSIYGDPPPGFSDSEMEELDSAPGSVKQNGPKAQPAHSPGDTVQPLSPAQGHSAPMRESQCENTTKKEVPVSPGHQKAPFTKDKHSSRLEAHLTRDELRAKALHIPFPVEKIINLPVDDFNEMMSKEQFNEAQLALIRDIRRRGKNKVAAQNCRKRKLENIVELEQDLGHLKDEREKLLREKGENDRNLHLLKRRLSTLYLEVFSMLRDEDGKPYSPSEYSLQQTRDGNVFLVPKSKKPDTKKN
In words: Activation of Nrf2 in mouse Heap1c1c7 cells assessed as induction of NAD(P)H:quinone reductase activity at 100 uM relative to control. The class given is cell-based.
Consider `C/C(=C/Cc1c(O)ccc(C(=O)/C=C/c2ccc(O)cc2)c1O)CO`, for which the fold change (FC) was determined as 1.52.

For the compound `C/C(=C\Cc1c(O)ccc(C(=O)/C=C/c2ccc(O)cc2)c1O)CO`, the fold change (FC) was determined as 1.43.

In the case of `C/C(=C\Cc1c(O)ccc(C(=O)/C=C/c2ccc(O)cc2O)c1O)CO`, the fold change (FC) is 1.61.

With `CC(C)=CCc1c(-c2ccc(O)cc2O)oc2cc(O)cc(O)c2c1=O`, the fold change (FC) worked out at 1.31.

As for `CC(C)=CCc1c(O)cc2oc3c(c(=O)c2c1O)C(C=C(C)C)Oc1cc(O)ccc1-3` (stereo unspecified), the fold change (FC) was found to be 1.31.

Regarding `CC(C)=CCc1c(O)ccc(C(=O)/C=C/c2ccc(O)cc2O)c1O`, the fold change (FC) amounted to 1.34.

`CC(C)=CCc1c(O)ccc2c1OC(c1ccc(O)cc1O)CC2=O` (stereo unspecified): the fold change (FC) was determined as 1.75.

Regarding `COc1ccc([C@@H]2CC(=O)c3c(cc(OC)c(OC)c3OC)O2)cc1OC`, the fold change (FC) is 1.81.

For the compound `O=C1CC(c2ccc(O)c(O)c2)Oc2cc(O[C@@H]3O[C@H](CO)[C@@H](O)[C@H](O)[C@H]3O)cc(O)c21` (stereo partly specified), the fold change (FC) amounted to 1.66.

For the compound `O=C1c2c(O)cc(O)cc2OC(c2ccc(O)cc2)C1O` (stereo unspecified), the fold change (FC) was 1.49.

For the next experiment, the target named is T1, Nuclear factor erythroid 2-related factor 2 (Mus musculus). In words: Activation of Nrf2 in mouse Heap1c1c7 cells assessed as induction of NAD(P)H:quinone reductase activity at 25 uM relative to control. The class given is cell-based.
Consider `C/C(=C/Cc1c(O)ccc(C(=O)/C=C/c2ccc(O)cc2O)c1O)CC(=O)/C=C/c1ccc(O)cc1`, for which the fold change (FC) stood at 1.39.

Turning to `C/C(=C\Cc1c(O)ccc(C(=O)/C=C/c2ccc(O)cc2)c1O)CC(=O)/C=C/c1ccc(O)cc1`, the fold change (FC) came to 1.57.

For the compound `CC(C)/C=C/c1c(O)cc2oc(-c3ccc(O)cc3O)c(/C=C/C(C)C)c(=O)c2c1O`, the fold change (FC) was 1.4.

As to `COc1cc(/C=C/C(=O)C/C(C)=C/Cc2c(O)ccc(C(=O)/C=C/c3ccc(O)cc3)c2O)ccc1O`, the fold change (FC) worked out at 1.49.

For a further experiment the target is unchanged. In words: Activation of Nrf2 in mouse Heap1c1c7 cells assessed as induction of NAD(P)H:quinone reductase activity at 50 uM relative to control. The class given is cell-based.
`CC(C)=CCc1c(O)cc2oc(-c3ccc(O)cc3O)c(/C=C/C(C)C)c(=O)c2c1O`: the fold change (FC) stood at 1.86.

Regarding `CC(C)=CCc1c(O)ccc(C(=O)/C=C/c2ccc(O)cc2)c1O`, the fold change (FC) turned out to be 1.69.

Consider `COc1cc([C@@H]2CC(=O)c3c(O)cc(O)cc3O2)ccc1O`, for which the fold change (FC) was found to be 1.51.

`O=C1C[C@@H](c2ccc(O)c(O)c2)Oc2cc(O)cc(O)c21`: the fold change (FC) was 1.36.

In the case of `O=c1c(O)c(-c2ccc(O)cc2)oc2cc(O)cc(O)c12`, the fold change (FC) worked out at 1.51.

As for `O=c1cc(-c2ccc(O)c(-c3c(O)cc(O)c4c(=O)cc(-c5ccc(O)cc5)oc34)c2)oc2cc(O)cc(O)c12`, the fold change (FC) is 1.42.

A further experiment shares this target. In words: Activation of Nrf2 in mouse Heap1c1c7 cells assessed as induction of NAD(P)H:quinone reductase activity at 12.5 uM relative to control. The class given is cell-based.
`C/C(=C/Cc1c(O)ccc(C(=O)/C=C/c2ccc(O)cc2)c1O)CC(=O)/C=C/c1ccc(O)cc1`: the fold change (FC) is 1.31.

In the case of `COc1cc(/C=C/C(=O)C/C(C)=C\Cc2c(O)ccc(C(=O)/C=C/c3ccc(O)cc3)c2O)ccc1O`, the fold change (FC) was found to be 1.46.

Take `O=c1c(O)c(-c2ccc(O)c(O)c2)oc2cc(O)cc(O)c12`: the fold change (FC) is 1.36.

The target of a further experiment is T2, Nuclear factor erythroid 2-related factor 2 (Homo sapiens) (UniProt Q16236).
T2 sequence (whole entry): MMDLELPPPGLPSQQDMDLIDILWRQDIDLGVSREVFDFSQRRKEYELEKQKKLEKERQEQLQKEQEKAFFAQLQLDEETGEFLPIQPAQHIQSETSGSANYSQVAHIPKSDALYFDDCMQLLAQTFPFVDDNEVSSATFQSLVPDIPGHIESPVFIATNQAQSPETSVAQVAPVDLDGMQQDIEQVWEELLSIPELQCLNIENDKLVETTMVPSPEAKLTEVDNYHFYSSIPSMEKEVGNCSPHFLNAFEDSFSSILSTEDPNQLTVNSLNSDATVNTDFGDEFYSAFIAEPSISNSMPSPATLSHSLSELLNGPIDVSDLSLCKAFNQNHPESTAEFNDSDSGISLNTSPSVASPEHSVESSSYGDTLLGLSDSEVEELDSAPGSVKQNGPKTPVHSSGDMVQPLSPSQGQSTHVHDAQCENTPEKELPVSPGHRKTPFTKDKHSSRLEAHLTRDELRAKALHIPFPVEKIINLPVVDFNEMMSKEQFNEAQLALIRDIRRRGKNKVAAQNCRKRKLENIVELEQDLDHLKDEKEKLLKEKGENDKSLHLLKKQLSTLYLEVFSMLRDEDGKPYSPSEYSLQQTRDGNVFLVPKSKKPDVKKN
Briefly: Activation of Nrf2 in human BEAS2B cells assessed as upregulation of Nrf2 protein expression at 20 uM after 12 hrs by immunoblot analysis. The class given is cell-based. (A western blot detects proteins with antibodies after separation by electrophoresis.)
As for `CC(C)(C)c1cc(O)ccc1O`, the result was Active.

Another experiment concerns the target T2, Nuclear factor erythroid 2-related factor 2 (Homo sapiens). In words: Activation of Nrf2 in human BEAS2B cells assessed as upregulation of NQO1 protein expression at 20 uM after 12 hrs by immunoblot analysis. The class given is cell-based.
Consider `CC(C)(C)c1cc(O)ccc1O`, for which the result was Active.

For another experiment the target is unchanged. Briefly: Activation of Nrf2 in human BEAS2B cells assessed as upregulation of gamma-GCS protein expression at 20 uM after 12 hrs by immunoblot analysis. The class given is cell-based.
Consider `CC(C)(C)c1cc(O)ccc1O`, for which the outcome was Active.
